Results: patent US11053204B2, “Pyrimidinyloxy benzene derivatives as herbicides” (FMC Corporation, priority 2015, dated 2021)

Legend:
Format in all cases: in vivo
[1] = test system: ragweed (common ragweed, Ambrosia elatior); experiment: Test A preemergence, visual injury rating; conditions: for Ragweed plant response rating: 0 to 100 scale (0 no effect, 100 complete control)
Outline: (§1)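 Greenhouse pot test, loam/sand soil. Formulation: non-phytotoxic solvent mix plus surfactant. Pre: directed spray onto soil after sowing. Post: plants at 1–2 leaf, 2–10 cm. Rated visually vs untreated controls at ~10 d, 0 (no effect) to 100 (complete control).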

[2] = test system: pigweed (Amaranthus retroflexus); experiment: Test A preemergence, visual injury rating; conditions: for Pigweed plant response rating: 0 to 100 scale (0 no effect, 100 complete control)
Outline: as §1

[3] = test system: giant foxtail (Setaria faberii); experiment: Test A preemergence, visual injury rating; conditions: for Foxtail, Giant plant response rating: 0 to 100 scale (0 no effect, 100 complete control)
Outline: as §1

[4] = test system: barnyardgrass (Echinochloa crus-galli); experiment: Test A preemergence, visual injury rating; conditions: for Barnyardgrass plant response rating: 0 to 100 scale (0 no effect, 100 complete control)
Outline: as §1

[5] = test system: Italian ryegrass (Lolium multiflorum); experiment: Test A preemergence, visual injury rating; conditions: for Ryegrass, Italian plant response rating: 0 to 100 scale (0 no effect, 100 complete control)
Outline: as §1

kochia (Kochia scoparia) [6] = experiment: Test A preemergence, visual injury rating; conditions: for Kochia plant response rating: 0 to 100 scale (0 no effect, 100 complete control)
Outline: as §1

[7] = test system: galium (catchweed bedstraw, Galium aparine); experiment: Test A postemergence, visual injury rating; conditions: 0 is no effect, 100 is complete control
Outline: as §1

[8] = test system: ragweed (common ragweed, Ambrosia elatior); experiment: Test A postemergence, visual injury rating; conditions: 0 is no effect, 100 is complete control; for Ragweed plant response rating: 0 to 100 scale, approximately 10 days
Outline: as §1

[9] = test system: pigweed (Amaranthus retroflexus); experiment: Test A postemergence, visual injury rating; conditions: 0 is no effect, 100 is complete control; for Pigweed plant response rating: 0 to 100 scale, approximately 10 days
Outline: as §1

corn (Zea mays) = experiment: Test A postemergence, visual injury rating; conditions: 0 is no effect, 100 is complete control
Outline: as §1

[10] = test system: giant foxtail (Setaria faberii); experiment: Test A postemergence, visual injury rating; conditions: 0 is no effect, 100 is complete control
Outline: as §1

[11] = test system: barnyardgrass (Echinochloa crus-galli); experiment: Test A postemergence, visual injury rating; conditions: 0 is no effect, 100 is complete control
Outline: as §1

[12] = test system: Italian ryegrass (Lolium multiflorum); experiment: Test A postemergence, visual injury rating; conditions: 0 is no effect, 100 is complete control; for Ryegrass, Italian plant response rating: 0 to 100 scale, approximately 10 days
Outline: as §1

kochia (Kochia scoparia) [13] = experiment: Test A postemergence, visual injury rating; conditions: 0 is no effect, 100 is complete control; for Kochia plant response rating: 0 to 100 scale, approximately 10 days
Outline: as §1

[14] = test system: wheat (Triticum aestivum); experiment: Test A postemergence, visual injury rating; conditions: 0 is no effect, 100 is complete control; for Wheat plant response rating: 0 to 100 scale, approximately 10 days
Outline: as §1

[15] = test system: blackgrass (Alopecurus myosuroides); experiment: Test A postemergence, visual injury rating; conditions: 0 is no effect, 100 is complete control
Outline: as §1

[16] = test system: ducksalad (Heteranthera limosa); experiment: Test B flooded paddy test, plant response rating; conditions: 250 g ai/ha; Flood; scale of 0 to 100 where 0 is no effect and 100 is complete control; 13 to 15 days
Outline: (§2)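 Test compounds are applied straight into paddy water held 3 cm above the soil surface, with that flood maintained for the whole test. After 13 to 15 days in the greenhouse, each species is scored visually relative to controls.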

rice (Oryza sativa) = experiment: Test B flooded paddy test, plant response rating; conditions: 250 g ai/ha; Flood; scale of 0 to 100 where 0 is no effect and 100 is complete control; 13 to 15 days
Outline: as §2

[17] = test system: barnyardgrass (Echinochloa crus-galli); experiment: Test B flooded paddy test, plant response rating; conditions: 250 g ai/ha; Flood; scale of 0 to 100 where 0 is no effect and 100 is complete control; 13 to 15 days
Outline: as §2

[18] = test system: sedge, umbrella (small-flower umbrella sedge, Cyperus difformis); experiment: Test B flooded paddy test, plant response rating; conditions: 250 g ai/ha; Flood; scale of 0 to 100 where 0 is no effect and 100 is complete control; 13 to 15 days
Outline: as §2

[19] = 31 g ai/ha, 0 to 100 scale, 0 no effect, 100 complete control
[20] = 31 g ai/ha, 0 to 100 scale, approximately 10 days

| Structure (SMILES) | Ragweed plant response rating ([1]; 125 g ai/ha) | Pigweed plant response rating ([2]; 125 g ai/ha) | Foxtail, Giant plant response rating ([3]; 125 g ai/ha) | Barnyardgrass plant response rating ([4]; 125 g ai/ha) | Ryegrass, Italian plant response rating ([5]; 125 g ai/ha) | Kochia plant response rating (kochia (Kochia scoparia) [6]; 125 g ai/ha) | Galium plant response rating (0 to 100 scale) ([7]; 125 g ai/ha) | Ragweed plant response rating ([8]; 125 g ai/ha) | Pigweed plant response rating ([9]; 125 g ai/ha) | Corn plant response rating (0 to 100 scale) (corn (Zea mays); 125 g ai/ha) | Foxtail, Giant plant response rating (0 to 100 scale) ([10]; 125 g ai/ha) | Barnyardgrass plant response rating (0 to 100 scale) ([11]; 125 g ai/ha) | Ryegrass, Italian plant response rating ([12]; 125 g ai/ha) | Kochia plant response rating (kochia (Kochia scoparia) [13]; 125 g ai/ha) | Wheat plant response rating ([14]; 125 g ai/ha) | Blackgrass plant response rating (0 to 100 scale) ([15]; 125 g ai/ha) | Plant response rating, Ducksalad [16] | Plant response rating, Rice (rice (Oryza sativa)) | Plant response rating, Barnyardgrass [17] | Plant response rating, Sedge, Umbrella [18] | other results |
| --- | --- | --- | --- | --- | --- | --- | --- | --- | --- | --- | --- | --- | --- | --- | --- | --- | --- | --- | --- | --- | --- |
| CC(=NOC(C)C)c1c(F)cccc1Oc1ncc(Cl)cn1 [Compound 76] | 0 | 50 | 70 | 70 | 0 | 0 | 90 | 0 | 30 | 0 | 0 | 0 | 0 | 0 | 0 | 0 | 85 | 10 | 0 | 70 | Plant response rating, Ragweed [1, 19]: 0; Plant response rating, Pigweed [2, 19]: 0; Plant response rating, Foxtail, Giant [3, 19]: 0; Plant response rating, Barnyardgrass [4, 19]: 0; Plant response rating, Ryegrass, Italian [5, 19]: 0; Plant response rating, Kochia (kochia (Kochia scoparia) [6]; [19]): 0; Galium plant response rating [7, 20]: 0; Ragweed plant response rating ([8]; 31 g ai/ha): 0; Pigweed plant response rating ([9]; 31 g ai/ha): 0; Corn plant response rating (corn (Zea mays); [20]): 0; Foxtail, Giant plant response rating [10, 20]: 0; Barnyardgrass plant response rating [11, 20]: 0; Ryegrass, Italian plant response rating ([12]; 31 g ai/ha): 0; Kochia plant response rating (kochia (Kochia scoparia) [13]; 31 g ai/ha): 0; Wheat plant response rating ([14]; 31 g ai/ha): 0; Blackgrass plant response rating [15, 20]: 0 |
| O=C(OC1CCC1)c1c(Br)cccc1Oc1ncc(Cl)cn1 [Compound 78] | 0 | 80 | 90 | 60 | 0 | 20 | 70 | 0 | 80 | 40 | 50 | 60 | 0 | 70 | 20 | 20 | 70 | 15 | 20 | 80 | Ragweed plant response rating ([1]; 500 g ai/ha): 0; Pigweed plant response rating ([2]; 500 g ai/ha): 100; Foxtail, Giant plant response rating ([3]; 500 g ai/ha): 100; Barnyardgrass plant response rating ([4]; 500 g ai/ha): 100; Ryegrass, Italian plant response rating ([5]; 500 g ai/ha): 20; Kochia plant response rating (kochia (Kochia scoparia) [6]; 500 g ai/ha): 60; Galium plant response rating (0 to 100 scale) ([7]; 500 g ai/ha): 100; Ragweed plant response rating (0 to 100 scale) ([8]; 500 g ai/ha): 30; Pigweed plant response rating (0 to 100 scale) ([9]; 500 g ai/ha): 90; Corn plant response rating (0 to 100 scale) (corn (Zea mays); 500 g ai/ha): 60; Foxtail, Giant plant response rating (0 to 100 scale) ([10]; 500 g ai/ha): 80; Barnyardgrass plant response rating (0 to 100 scale) ([11]; 500 g ai/ha): 100; Ryegrass, Italian plant response rating (0 to 100 scale) ([12]; 500 g ai/ha): 30; Kochia plant response rating (0 to 100 scale) (kochia (Kochia scoparia) [13]; 500 g ai/ha): 100; Wheat plant response rating (0 to 100 scale) ([14]; 500 g ai/ha): 30; Blackgrass plant response rating (0 to 100 scale) ([15]; 500 g ai/ha): 60 |
